The structures appear in SMILES notation. Structures can show the parent of a compound that is named as a salt.

One test has as its system M5076 mouse reticulum cell sarcoma cells. The test can be described thus: Tumor growth inhibition, M5076 mouse reticulum cell sarcoma transplanted subcutaneously in BDF1 mice (Test 2). Conditions: 70 mg/kg, abdominally administered for 9 days, tumor weight on day 21. The test is classed as in vivo. The procedure:
The treated group to which the test sample was administered consisted of seven mice while the control group consisted of ten mice. Six weeks old male mice (BDF1, 25±2.5 g) were employed as host animals.
M5076 mouse reticulum cell sarcoma cells routinely cultured in abdominal of C57BL/6 male mice were diluted with cold Hanks solution and 1.0×10^6 cells of them were transplanted subcutaneously into left breast of each mouse. The samples prepared by suspending test compounds in 1% hydroxypropyl cellulose (HPC) were abdominally administered for 9 days after the day after the transplantation. After 21 days passed from the transplantation of the tumor, the mice were killed and the tumors were extracted out to measure the tumor weights of the respective groups.
Effect of sample was calculated as tumor growth inhibition by the following formula:
Tumor Growth Inhibition (%)=(1-T/C)×100
T: tumor weight of group with sample administered
C: tumor weight of control group
For `c1cn(-c2nc(N3CCOCC3)nc(N3CCOCC3)n2)cn1` [compound A, 2-(imidazol-1-yl)-4,6-dimorpholino-1,3,5-triazine, reference compound], the “Tumor Growth Inhibition (%)” value was determined as 5.0%.

The same test, now with this note: 200 mg/kg, abdominally administered for 9 days, tumor weight on day 21.
Consider `C[C@@H]1CN(c2nc(N3CCOCC3)nc(-n3cnc4ccccc43)n2)C[C@H](C)O1` [compound 1, 2-(benzimidazol-1-yl)-4-(cis-2,6-dimethyl-morpholino)-6-morpholino-1,3,5-triazine], for which the “Tumor Growth Inhibition (%)” value worked out at 94.7%.

Turning to `CC1(C)CN(c2nc(N3CCOCC3)nc(-n3cnc4ccccc43)n2)CCO1` [compound 11, 2-(benzimidazol-1-yl)-4-(2,2-dimethylmorpholino)-6-morpholino-1,3,5-triazine], the “Tumor Growth Inhibition (%)” value stood at 88.3%.

`C[C@@H]1CN(c2cc(N3CCOCC3)nc(-n3cnc4ccccc43)n2)C[C@H](C)O1` [compound 19, 2-(benzimidazol-1-yl)-4-(cis-2,6-dimethyl-morpholino)-6-morpholinopyrimidine]: the “Tumor Growth Inhibition (%)” value was 98.1%.

The subject of another test is MCF-7 cells. The test can be described thus: Growth inhibition of MCF-7 human breast cancer cells, 72 h culture (Test 1). Conditions: MCF7, 37° C., read-out: 50% Growth inhibition concentrations (GI50). Format: cell-based. The procedure: Used in the test were MCF-7 cells which were established from human breast cancer and were cultured routinely under the conditions of 37° C. and 5% CO2, in RPMI 1640 medium supplemented with 10% fetal calf serum, HEPES buffer solution (25 mM) and kanamycin (0.1 mg/ml). Single cell suspension was prepared by adding trypsin/EDTA to the medium so as to be adjusted to 4.0×10^4 cells/ml. Test compounds were dissolved or suspended in DMSO or RPMI 1640 medium at a concentration of 1.0×10^-4 -1.0×10^-9 M.
The cell suspension and the sample solution or suspension were filled in a 96-wells microplate at a rate of 0.1 ml of the former and 0.1 ml of the latter per well and cultured at 37° C. for 72 hours in 5% CO2.
50% Growth inhibition concentrations (GI50 μM) were calculated from growth inhibitions at various sample concentrations.
Consider `C[C@@H]1OCCN(c2nc(N3CCOCC3)nc(-n3cnc4ccccc43)n2)[C@@H]1C` (relative stereo) [compound 7, 2-(benzimidazol-1-yl)-4-(cis-2,3-dimethylmorpholino)-6-morpholino-1,3,5-triazine], for which the GI50 came to 1 µM.

For the compound `C[C@@H]1CN(c2nc(N3CCO[C@@H](C)[C@H]3C)nc(-n3cnc4ccccc43)n2)C[C@H](C)O1` (relative stereo) [compound 8, 2-(benzimidazol-1-yl)-4-(cis-2,3-dimethylmorpholino)-6-(cis-2,6-dimethylmorpholino)-1,3,5-triazine], the GI50 is 3.9 µM.

`C[C@H]1CN(c2nc(N3CCOCC3)nc(-n3cnc4ccccc43)n2)C[C@H](C)O1` (relative stereo) [compound 14, 2-(benzimidazol-1-yl)-4-(trans-2,6-dimethylmorpholino)-6-morpholino-1,3,5-triazine]: the GI50 stood at 2.3 µM.

On to `C[C@H]1CN(c2cc(N3CCOCC3)nc(-n3cnc4ccccc43)n2)C[C@H](C)O1` (relative stereo) [compound 20, 2-(benzimidazol-1-yl)-4-(trans-2,6-dimethylmorpholino)-6-morpholinopyrimidine], for which the GI50 worked out at 2.8 µM.

Turning to `C[C@@H]1OCCN(c2cc(N3CCOCC3)nc(-n3cnc4ccccc43)n2)[C@@H]1C` (relative stereo) [compound 21, 2-(benzimidazol-1-yl)-4-(cis-2,3-dimethylmorpholino)-6-morpholinopyrimidine], the GI50 came out at 1.1 µM.

Take `C[C@@H]1CN(c2nc(N3CCOCC3)nc(-n3cnc4ccccc43)n2)C[C@H](C)O1` [compound 1, 2-(benzimidazol-1-yl)-4-(cis-2,6-dimethyl-morpholino)-6-morpholino-1,3,5-triazine]: the GI50 was 2.9 µM.

As to `c1ccc2c(c1)ncn2-c1nc(N2CCOCC2)nc(N2CCOCC2)n1` [compound 2, 2-(benzimidazol-1-yl)-4,6-dimorpholino-1,3,5-triazine], the GI50 is 3.3 µM.

As to `Cc1nc2ccccc2n1-c1nc(N2CCOCC2)nc(N2CCOCC2)n1` [compound 3, 2-(2-methylbenzimidazol-1-yl)-4,6-dimorpholino-1,3,5-triazine], the GI50 was found to be 3.7 µM.

On to `N#Cc1nc(N2CCOCC2)nc(-n2cnc3ccccc32)n1` [compound 4, 2-(benzimidazol-1-yl)-4-cyano-6-morpholino-1,3,5-triazine], for which the GI50 was determined as 3.8 µM.

In the case of `FC(F)(F)C1CN(c2nc(N3CCOCC3)nc(-n3cnc4ccccc43)n2)CCO1` (stereo not drawn) [compound 6, 2-(benzimidazol-1-yl)-4-morpholino-6-(2-trifluoro-methylmorpholino)-1,3,5-triazine], the GI50 came to 7.2 µM.

Regarding `CC1(C)CN(c2nc(N3CCOCC3)nc(-n3cnc4ccccc43)n2)CCO1` [compound 11, 2-(benzimidazol-1-yl)-4-(2,2-dimethylmorpholino)-6-morpholino-1,3,5-triazine], the GI50 was 1.7 µM.

`CCC1CN(c2nc(N3CCOCC3)nc(-n3cnc4ccccc43)n2)CCO1` (stereo not drawn) [compound 12, 2-(benzimidazol-1-yl)-4-(2-ethylmorpholino)-6-morpholino-1,3,5-triazine]: the GI50 amounted to 3.9 µM.

For the compound `CC1CN(c2nc(N3CCOCC3)nc(-n3cnc4ccccc43)n2)CCO1` (stereo not drawn) [compound 16, 2-(benzimidazol-1-yl)-4-(2-methylmorpholino)-6-morpholino-1,3,5-triazine], the GI50 was found to be 4.8 µM.

Consider `CC(C)(C)OC(=O)NCC1CN(c2nc(N3CCOCC3)nc(-n3cnc4ccccc43)n2)CCO1` (stereo not drawn) [compound 18, 2-(benzimidazol-1-yl)-4-[2-(tert-butoxycarbonylamino-methyl)morpholino]-6-morpholino-1,3,5-triazine], for which the GI50 came out at 6.3 µM.

Take `C[C@@H]1CN(c2cc(N3CCOCC3)nc(-n3cnc4ccccc43)n2)C[C@H](C)O1` [compound 19, 2-(benzimidazol-1-yl)-4-(cis-2,6-dimethyl-morpholino)-6-morpholinopyrimidine]: the GI50 was determined as 3.2 µM.

On to `c1ccc2c(c1)ncn2-c1nc(N2CCOCC2)cc(N2CCSCC2)n1` [compound 23, 2-(benzimidazol-1-yl)-4-morpholino-6-thiomorpholino-pyrimidine], for which the GI50 was 3.9 µM.

Turning to `CC(C)(C)OC(=O)NCC1CN(c2cc(N3CCOCC3)nc(-n3cnc4ccccc43)n2)CCO1` (stereo not drawn) [compound 25, 2-(benzimidazol-1-yl)-4-[2-(tert-butoxycarbonylamino-methyl)morpholino]-6-morpholinopyrimidine], the GI50 was 4 µM.

With `Cc1cc2ncn(-c3nc(N4CCOCC4)nc(N4CCOCC4)n3)c2cc1C` [compound 30, 2-(5,6-dimethylbenzimidazol-1-yl)-4,6-dimorpholino-1,3,5-triazine], the GI50 came out at 3.7 µM.

On to `CN(Cc1ccccc1)CC1CN(c2nc(N3CCOCC3)nc(-n3cnc4ccccc43)n2)CCO1` (stereo not drawn) [compound 31, 2-(benzimidazol-1-yl)-4-[2-(N-benzyl-N-methylamino-methyl)morpholino]-6-morpholino-1,3,5-triazine], for which the GI50 is 6.8 µM.

Take `FCC1CN(c2nc(N3CCOCC3)nc(-n3cnc4ccccc43)n2)CCO1` (stereo not drawn) [compound 32, 2-(benzimidazol-1-yl)-4-(2-fluoromethylmorpholino)-6-morpholino-1,3,5-triazine]: the GI50 was 3.9 µM.

With `Cc1nc2ccccc2n1-c1nc(N2CCOCC2)nc(N2C[C@@H](C)O[C@@H](C)C2)n1` [compound 33, 4-(cis-2,6-dimethylmorpholino)-2-(2-methylbenzimidazol-1-yl)-6-morpholino-1,3,5-triazine], the GI50 was 3.2 µM.

In the case of `OCC1CN(c2nc(N3CCOCC3)nc(-n3cnc4ccccc43)n2)CCO1` (stereo not drawn) [compound 34, 2-(benzimidazol-1-yl)-4-(2-hydroxymethylmorpholino)-6-morpholino-1,3,5-triazine], the GI50 stood at 5.8 µM.

Take `OC1CCCN(c2nc(N3CCOCC3)nc(-n3cnc4ccccc43)n2)C1` (stereo not drawn) [compound 36, 2-(benzimidazol-1-yl)-4-(3-hydroxypiperidino)-6-morpholino-1,3,5-triazine]: the GI50 worked out at 3.9 µM.

With `CC(=O)OC1CCN(c2nc(N3CCOCC3)nc(-n3cnc4ccccc43)n2)CC1` [compound 38, 2-(4-acetoxypiperidino)-4-(benzimidazol-1-yl)-6-morpholino-1,3,5-triazine], the GI50 worked out at 6.5 µM.

As to `OCCN(CCO)c1nc(N2CCOCC2)nc(-n2cnc3ccccc32)n1` [compound 42, 2-(benzimidazol-1-yl)-4-[N,N-di(2-hydroxyethyl)amino]-6-morpholino-1,3,5-triazine], the GI50 is 4.6 µM.

With `c1ccc2c(c1)ncn2-c1nc(N2CCOCC2)cc(N2CCOCC2)n1` [compound 43, 2-(benzimidazol-1-yl)-4,6-dimorpholinopyrimidine], the GI50 came out at 4.3 µM.

For `c1ccc2c(c1)ncn2-c1cc(N2CCOCC2)nc(-n2cnc3ccccc32)n1` [compound 44, 2,4-di(benzimidazol-1-yl)-6-morpholinopyrimidine], the GI50 amounted to 3.1 µM.

Take `c1ccc2c(c1)ncn2-c1cc(N2CCOCC2)nc(N2CCOCC2)n1` [compound 45, 4-(benzimidazol-1-yl)-2,6-dimorpholinopyrimidine]: the GI50 turned out to be 4.6 µM.

Turning to `c1ccc2c(c1)ncn2-c1cc(-n2cnc3ccccc32)nc(N2CCOCC2)n1` [compound 46, 4,6-di(benzimidazol-1-yl)-2-morpholinopyrimidine], the GI50 amounted to 4.3 µM.

As to `Brc1c(N2CCOCC2)nc(-n2cnc3ccccc32)nc1N1CCOCC1` [compound 47, 2-(benzimidazol-1-yl)-5-bromo-4,6-dimorpholinopyrimidine], the GI50 worked out at 3.6 µM.

As to `c1ccc2c(c1)ncn2-c1nc(N2CCOCC2)nc(N2CCC3(CC2)OCCO3)n1` [compound 48, 2-(benzimidazol-1-yl)-4-[1,4-dioxa-8-azaspiro[4,5]decan-8-yl)-6-morpholino-1,3,5-triazine], the GI50 worked out at 5 µM.

With `CCN(CCN1CCOCC1)c1nc(N2CCOCC2)nc(-n2cnc3ccccc32)n1` [compound 49, 2-(benzimidazol-1-yl)-4-(N-ethyl-N-2-morpholinoethyl)amino-6-morpholino-1,3,5-triazine], the GI50 was found to be 5 µM.

Turning to `NCCCCC1CCCN(c2nc(N3CCOCC3)nc(-n3cnc4ccccc43)n2)C1` (stereo not drawn) [compound 53, hydrochloride of 2-[3-(4-aminobutyl)piperidino]-4-(benzimidazol-1-yl)-6-morpholino-1,3,5-triazine], the GI50 is 5.2 µM.

Consider `c1cn(-c2nc(N3CCOCC3)nc(N3CCOCC3)n2)cn1` [compound A, 2-(imidazol-1-yl)-4,6-dimorpholino-1,3,5-triazine, reference compound], for which the GI50 is 20 µM.

Turning to `CN(C)c1nc(N(C)C)nc(N(C)CO)n1` [compound C, hydroxymethylpentamethylmelamine, reference compound], the GI50 is more than 50 µM.

These data come from patent US6251900A, “Heterocyclic compounds and antitumor agent containing the same as active ingredient” (Zenyaku Kogyo Kabushiki Kaisha, priority 1997, dated 2001).
